Experimental data as given in PMC7330904 (ACS Omega, 2020).

Columns and labels:
[1] = system: Hep-G2 cells; experiment: APOPercentage apoptosis assay, Hep-G2; format: cell-based, human; settings: Hep-G2, 24 h, IC50 of complexes, flow cytometry, vs untreated cells
[2] = system: calf thymus DNA (CT-DNA); settings: cited from earlier work

| Structure (SMILES) | induction of apoptosis (APOPercentage dye uptake) [1] | binding constant Kb of known DNA intercalator [2] |
| --- | --- | --- |
| N.N.[Cl][Pt][Cl] [Cisplatin] | but not Hep-G2 cells |  |
| COc1cccc2c1C(=O)c1c(O)c3c(c(O)c1C2=O)C[C@@](O)(C(=O)CO)C[C@@H]3O[C@H]1C[C@H](N)[C@@H](O)[C@H](C)O1 [Epirubicin] |  | 3.4 × 10^4 M^–1 |
| Nc1ccc2cc3ccc(N)cc3nc2c1 [Proflavine] |  | 2.32 × 10^4 M^–1 |
| CC[n+]1c(-c2ccccc2)c2cc(N)ccc2c2ccc(N)cc21 [ethidium bromide] |  | 1.4 × 10^6 M^–1 |
